Measurements published in patent publication US8362022B2, “Selective subtype alpha 2 adrenergic agents and methods for use thereof” (Allergan, Inc., priority 2008, dated 2013).
Read-outs that look alike come from different tables or passages of the source.

Columns and labels:
Assay type in all cases: cell-based
Alpha 1A = target: T1, Alpha 1A (Homo sapiens, UniProt P35348); assay: RSAT assay (Receptor Selection and Amplification Technology), Alpha 1A; settings: value in parentheses, ratio of maximal effect of drug to maximal effect of standard full agonist
T1 sequence (P35348 1-466): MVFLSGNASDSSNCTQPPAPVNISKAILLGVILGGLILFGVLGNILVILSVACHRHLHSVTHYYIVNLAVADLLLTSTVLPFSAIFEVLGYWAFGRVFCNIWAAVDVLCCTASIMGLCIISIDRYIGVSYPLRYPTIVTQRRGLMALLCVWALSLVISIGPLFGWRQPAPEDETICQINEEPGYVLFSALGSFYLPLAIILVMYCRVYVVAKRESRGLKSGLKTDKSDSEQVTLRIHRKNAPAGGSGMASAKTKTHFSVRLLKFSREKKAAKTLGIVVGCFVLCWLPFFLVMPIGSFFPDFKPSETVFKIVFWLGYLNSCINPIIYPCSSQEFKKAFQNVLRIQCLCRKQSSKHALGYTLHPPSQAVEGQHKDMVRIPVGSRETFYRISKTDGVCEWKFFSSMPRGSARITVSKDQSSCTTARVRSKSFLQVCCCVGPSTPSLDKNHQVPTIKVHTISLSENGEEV
Experimental: (§1) The RSAT assay measures a receptor-mediated loss of contact inhibition that results in selective proliferation of receptor-containing cells in a mixed population of confluent cells. The increase in cell number is assessed with an appropriate transfected marker gene such as β-galactosidase, the activity of which can be easily measured in a 96-well format. Receptors that activate the G protein, Gq, elicit this response. Alpha 2 receptors, which normally couple to Gi, activate the RSAT response when coexpressed with a hybrid Gq protein that has a Gi receptor recognition domain, called Gq/i5.
(§2) NIH-3T3 cells are plated at a density of 2×10^6 cells in 15 cm dishes and maintained in Dulbecco's modified Eagle's medium supplemented with 10% calf serum. One day later, cells are cotransfected by calcium phosphate precipitation with mammalian expression plasmids encoding p-SV-β-galactosidase (5-10 μg), receptor (1-2 μg) and G protein (1-2 μg). 40 μg salmon sperm DNA may also be included in the transfection mixture. […] Cells are thawed and 100 μl added to 100 μL aliquots of various concentrations of drugs in triplicate in 96-well dishes. Incubations continue 72-96 hr at 37° C. After washing with phosphate-buffered saline, β-galactosidase enzyme activity is determined by adding 200 μL of the chromogenic substrate (consisting of 3.5 mM o-nitrophenyl-β-D-galactopyranoside and 0.5% nonidet P-40 in phosphate buffered saline), incubating overnight at 30° C. and measuring optical density at 420 nm. The absorbance is a measure of enzyme activity, which depends on cell number and reflects a receptor-mediated cell proliferation. The efficacy or intrinsic activity is calculated as a ratio of the maximal effect of the drug to the maximal effect of a standard full agonist for each receptor subtype. Brimonidine, the chemical structure of which is shown below, is used as the standard agonist for the alpha 2B and alpha 2C receptors. […] NA stands for “not active” at concentrations less than 3-10 micromolar.

alpha 2B receptor = target: T2, alpha 2B receptor (Homo sapiens, UniProt P18089); assay: RSAT assay (Receptor Selection and Amplification Technology), Alpha 2B; settings: for Intrinsic Activity efficacy Alpha 2B: value in parentheses, ratio of maximal effect to that of brimonidine
T2 construct: expressed in transfected cells; host or cells: NIH-3T3
T2 sequence (P18089 1-450): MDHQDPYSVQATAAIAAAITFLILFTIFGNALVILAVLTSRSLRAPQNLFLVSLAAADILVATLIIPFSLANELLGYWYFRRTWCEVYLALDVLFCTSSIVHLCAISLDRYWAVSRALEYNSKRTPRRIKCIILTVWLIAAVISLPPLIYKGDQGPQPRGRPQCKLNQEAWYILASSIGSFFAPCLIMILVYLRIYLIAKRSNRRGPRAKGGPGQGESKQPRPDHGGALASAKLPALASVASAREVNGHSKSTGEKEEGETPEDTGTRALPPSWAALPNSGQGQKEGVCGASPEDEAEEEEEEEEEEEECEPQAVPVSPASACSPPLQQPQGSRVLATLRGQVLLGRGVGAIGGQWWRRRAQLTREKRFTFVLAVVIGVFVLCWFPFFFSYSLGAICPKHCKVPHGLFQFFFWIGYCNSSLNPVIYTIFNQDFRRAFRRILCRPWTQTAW
Experimental: as §1, §2

alpha 2C receptor = target: T3, alpha 2C receptor (Homo sapiens, UniProt P18825); assay: RSAT assay (Receptor Selection and Amplification Technology), Alpha 2C; settings: for Intrinsic Activity efficacy Alpha 2C: value in parentheses, ratio of maximal effect to that of brimonidine
T3 construct: expressed in transfected cells; host or cells: NIH-3T3
T3 sequence (P18825 1-462): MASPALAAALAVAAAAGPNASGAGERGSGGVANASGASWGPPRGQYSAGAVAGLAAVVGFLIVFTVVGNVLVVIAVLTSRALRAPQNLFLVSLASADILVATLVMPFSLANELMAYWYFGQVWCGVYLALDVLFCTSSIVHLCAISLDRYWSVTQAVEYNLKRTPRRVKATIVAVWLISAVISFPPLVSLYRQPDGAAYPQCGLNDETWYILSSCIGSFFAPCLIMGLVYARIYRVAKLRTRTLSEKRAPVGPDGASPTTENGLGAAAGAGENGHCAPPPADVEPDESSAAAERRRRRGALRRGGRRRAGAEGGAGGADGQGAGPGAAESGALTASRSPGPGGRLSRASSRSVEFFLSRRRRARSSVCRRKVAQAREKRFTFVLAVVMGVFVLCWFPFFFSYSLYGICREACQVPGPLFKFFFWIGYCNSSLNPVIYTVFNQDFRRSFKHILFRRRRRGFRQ
Experimental: as §1, §2

[1] = RSAT, Table 2, read-out: Potency nM (EC50) Alpha 2B
[2] = RSAT, transfected NIH-3T3 cells with Gq/i5, Table 1, read-out: potency nM (EC50) Alpha 2B

| SMILES | Intrinsic Activity efficacy Alpha 1A (Alpha 1A) | Intrinsic Activity efficacy Alpha 2B (alpha 2B receptor; RSAT, Table 2) | EC50 (alpha 2B receptor; [1]) [nM] | other results |
| --- | --- | --- | --- | --- |
| COc1ccccc1C(Cc1ccncc1)N=C1NCCN1 (stereo not shown) [Compound 10, N-(Imidazolidin-2-ylidene)-1-(2-methoxyphenyl)-2-(pyridin-4-yl)ethanamine] | 1.0 | – | – | – |
| c1ccc(C(Cc2cccnc2)NC2=NCCO2)cc1 (stereo not shown) | – | 0.76 | – | EC50 (alpha 2B receptor): 4.5 nM |
| Cc1cccc(C(Cc2ccncc2)N=C2NCCN2)c1C (stereo not shown) [Compound 5, 1-(2,3-Dimethylphenyl)-N-(imidazolidin-2-ylidene)-2-(pyridin-4-yl)ethanamine] | – | – | – | EC50 (alpha 2B receptor): 3.1 nM; Intrinsic Activity efficacy Alpha 2B (alpha 2B receptor; RSAT, Table 1): 1.15; EC50 (alpha 2C receptor): 8.4 nM; Intrinsic Activity efficacy Alpha 2C (alpha 2C receptor; RSAT): 0.49 |
| c1ccc(C(Cc2ccncc2)N=C2NCCN2)cc1 (stereo not shown) [Compound 3, N-(Imidazolidin-2-ylidene)-1-phenyl-2-(pyridin-4-yl)ethanamine] | 0.63 | – | – | – |
| Clc1cccc(C(Cc2ccncc2)/N=C2/NCCO2)c1 (stereo not shown) [Compound 8, 1-(3-Chlorophenyl)-N-(oxazolidin-2-ylidene)-2-(pyridin-4-yl)ethanamine] | 1.4 | – | – | – |
| c1ccc(C(Cc2cnccn2)/N=C2/NCCO2)cc1 (stereo not shown) [Compound 14, N-(Oxazolidin-2-ylidene)-1-phenyl-2-(pyrazin-2-yl)ethanamine] | 1.19 | – | – | EC50 (alpha 2B receptor; [2]): 132 nM; Intrinsic Activity efficacy Alpha 2B (alpha 2B receptor; RSAT, Table 1): 1.0 |
| Fc1c(Cl)cccc1C(Cc1ccncc1)N=C1NCCN1 (stereo not shown) [Compound 20, 1-(3-Chloro-2-fluorophenyl)-N-(imidazolidin-2-ylidene)-2-(pyridin-4-yl)ethanamine] | 0.6 | – | – | – |
| Fc1c(Cl)cccc1C(Cc1ccncc1)/N=C1/NCCO1 (stereo not shown) [Compound 19, 1-(3-Chloro-2-fluorophenyl)-N-(oxazolidin-2-ylidene)-2-(pyridin-4-yl)ethanamine] | 1.27 | – | – | – |
| Fc1cccc(C(Cc2ccncc2)/N=C2/NCCS2)c1 (stereo not shown) [Compound 23, 1-(3-Fluorophenyl)-2-(pyridin-4-yl)-N-(thiazolidin-2-ylidene)ethanamine] | 1.36 | – | – | – |
| c1ccc([C@@H](Cc2ccncc2)N=C2NCCN2)cc1 [Compound 29, R—N-(imidazolidin-2-ylidene)-1-phenyl-2-(pyridin-4-yl)ethanamine] | 0.60 | – | – | EC50 (alpha 2C receptor; RSAT, transfected NIH-3T3 cells with Gq/i5, NA = not active at concentrations less than 10 micromolar, read-out: potency nM (EC50) Alpha 2C): 96 nM; Intrinsic Activity efficacy Alpha 2C (alpha 2C receptor; RSAT): 0.60 |
| Cc1cncc(CC(NC2=NCCO2)c2cccc(Cl)c2)c1C (stereo not shown) | – | 0.9 | 8.5 | – |
| Cc1cccc(C(Cc2cccnc2)/N=C2/NCCS2)c1C (stereo not shown) [Compound 22, 1-(2,3-Dimethylphenyl)-2-(pyridin-3-yl)-N-(thiazolidin-2-ylidene)ethanamine] | 0.7 | – | – | – |
| Cc1cccc(C(Cc2ccccn2)NC2=NCCO2)c1C (stereo not shown) | – | 0.93 | 6.7 | – |
| Clc1cccc(C(Cc2ccncc2)N=C2NCCN2)c1Cl (stereo not shown) [Compound 32, 1-(2,3-Dichlorophenyl)-N-(imidazolidin-2-ylidene)-2-(pyridin-4-yl)ethanamine] | 0.52 | – | – | EC50 (alpha 2B receptor; [2]): 1 nM; Intrinsic Activity efficacy Alpha 2B (alpha 2B receptor; RSAT, Table 1): 1.3 |
| c1ccc(C(Cc2cnccn2)N=C2NCCN2)cc1 (stereo not shown) [Compound 15, N-(Imidazolidin-2-ylidene)-1-phenyl-2-(pyrazin-2-yl)ethanamine] | 0.72 | – | – | EC50 (alpha 2B receptor; [2]): 198 nM; Intrinsic Activity efficacy Alpha 2B (alpha 2B receptor; RSAT, Table 1): 0.84 |

Further lines, with some results ahead:

| Intrinsic Activity efficacy Alpha 1A (Alpha 1A) | Intrinsic Activity efficacy Alpha 2B (alpha 2B receptor; RSAT, Table 2) | EC50 (alpha 2B receptor; [1]) [nM] | SMILES | other results |
| --- | --- | --- | --- | --- |
| – | 1.12 | 4 | Cc1cncc(CC(NC2=NCCO2)c2cccc(Cl)c2)c1 (stereo not shown) | – |
| – | 0.65 | 56 | COc1cccc(C(Cc2cccnc2)NC2=NCCO2)c1 (stereo not shown) | – |
| – | 1.1 | 3 | Cc1cncc(CC(NC2=NCCO2)c2cccc(C)c2)c1 (stereo not shown) | – |
| – | 0.87 | 0.09 | Fc1cccc(C(Cc2cccnc2Cl)NC2=NCCO2)c1 (stereo not shown) | – |
| – | 1.01 | 0.48 | Clc1cccc(C(Cc2cccnc2Cl)NC2=NCCO2)c1 (stereo not shown) | – |
| – | 0.81 | 0.21 | Fc1ncccc1CC(NC1=NCCO1)c1cccc(Cl)c1 (stereo not shown) | – |
| – | 1.02 | 2.7 | Cc1cccc(C(Cc2cncc(Br)c2C)NC2=NCCO2)c1 (stereo not shown) | – |
| – | 1.01 | 0.14 | Clc1ncccc1CC(NC1=NCCO1)c1cccc(Br)c1 (stereo not shown) | – |
| – | 1.35 | 1.9 | Cc1c(Br)cncc1CC(NC1=NCCO1)c1cccc(Cl)c1 (stereo not shown) | – |
| – | 1.05 | 1.3 | Clc1cccc(C(Cc2cccnc2Br)NC2=NCCO2)c1 (stereo not shown) | – |
| – | 0.88 | 0.06 | Cc1cccc(C(Cc2cccnc2Cl)NC2=NCCO2)c1 (stereo not shown) | – |
| – | 0.89 | 5.6 | Clc1cccc(C(Cc2cccnc2)NC2=NCCO2)c1Cl (stereo not shown) | – |
| – | 1.08 | 5.6 | Cc1c(Cl)cncc1CC(NC1=NCCO1)c1cccc(Cl)c1 (stereo not shown) | – |
| – | 1.24 | 8.2 | Cc1cccc(C(Cc2cccnc2)NC2=NCCO2)c1 (stereo not shown) | – |
| – | 1.11 | 3.9 | Cc1cccc(C(Cc2cncc(C)c2C)NC2=NCCO2)c1 (stereo not shown) | – |
| – | 0.74 | 16 | c1ccc(C(Cc2cccnc2)NC2=NCCN2)cc1 (stereo not shown) | – |
